The text below walks through data of patent US8658638B2, “Mineralocorticoid receptor antagonist and methods of use” (priority 2009, dated 2014).

In assay [1] the target is T1, human MR (mineralocorticoid receptor) (Homo sapiens, UniProt P08235).
T1 construct: expressed in transfected cells; host or cells: HEK293 (293-MR lysate)
T1 sequence (P08235 1-984): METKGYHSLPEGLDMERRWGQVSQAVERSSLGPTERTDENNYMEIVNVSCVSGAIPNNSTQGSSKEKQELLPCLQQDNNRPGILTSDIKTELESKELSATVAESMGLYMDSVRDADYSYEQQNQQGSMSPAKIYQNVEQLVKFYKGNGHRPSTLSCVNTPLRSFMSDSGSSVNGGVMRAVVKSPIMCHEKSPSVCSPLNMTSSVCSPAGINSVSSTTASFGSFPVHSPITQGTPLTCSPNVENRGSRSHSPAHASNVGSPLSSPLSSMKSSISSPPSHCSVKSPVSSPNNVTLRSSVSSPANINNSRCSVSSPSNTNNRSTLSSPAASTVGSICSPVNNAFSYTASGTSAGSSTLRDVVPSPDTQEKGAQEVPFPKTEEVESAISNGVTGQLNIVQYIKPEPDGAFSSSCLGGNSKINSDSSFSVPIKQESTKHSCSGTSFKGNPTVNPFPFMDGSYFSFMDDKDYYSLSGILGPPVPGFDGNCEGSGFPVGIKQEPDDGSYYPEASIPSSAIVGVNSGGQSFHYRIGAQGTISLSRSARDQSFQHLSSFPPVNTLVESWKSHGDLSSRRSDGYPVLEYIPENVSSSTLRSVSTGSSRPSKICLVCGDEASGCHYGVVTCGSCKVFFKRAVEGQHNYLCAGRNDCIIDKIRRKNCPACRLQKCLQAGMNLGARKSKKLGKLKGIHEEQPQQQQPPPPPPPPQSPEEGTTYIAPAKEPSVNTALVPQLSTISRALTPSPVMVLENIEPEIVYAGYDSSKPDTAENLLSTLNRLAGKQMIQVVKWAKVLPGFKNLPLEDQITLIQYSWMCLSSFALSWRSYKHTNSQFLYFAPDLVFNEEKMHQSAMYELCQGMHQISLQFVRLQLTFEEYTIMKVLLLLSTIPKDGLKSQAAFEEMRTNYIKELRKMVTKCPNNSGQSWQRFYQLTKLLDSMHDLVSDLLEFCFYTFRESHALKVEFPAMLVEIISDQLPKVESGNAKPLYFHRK
The assay can be described thus: Steroid nuclear hormone receptor binding assay, MR. Particulars: [3H]-aldosterone, HEK293 lysate overexpressing human MR. The method, then: (§1) Cell lysates from human embryonic kidney HEK293 cells overexpressing human MR (mineralocorticoid receptor), GR (glucocorticoid receptor), AR (androgen receptor), or PR (progesterone receptor) are used for receptor-ligand competition binding assays to determine Ki values.
(§2) Briefly, steroid receptor competition binding assays are run in a buffer containing 20 mM HEPES buffer (pH=7.6), 0.2 mM EDTA, 75 mM NaCl, 1.5 mM MgCl2, 20% glycerol, 20 mM sodium molybdate, 0.2 mM DTT (dithiothreitol), 20 μg/mL aprotinin and 20 μg/mL leupeptin (assay buffer). Typically, steroid receptor binding assays include radio-labeled ligands, such as 0.25 nM [^3H]-aldosterone for MR binding, 0.7 nM [^3H]-dexamethasone for GR binding, 0.36 nM [^3H]-methyltrienolone for AR binding, and 0.29 nM [^3H]-methyltrienolone for PR binding, and either 20 μg 293-MR lysate, 20 μg 293-GR lysate, 22 μg 293-AR lysate, or 40 μg 293-PR lysate per well. Assays are typically run in 96-well format. Competing test compounds are added at various concentrations ranging from about 0.01 nM to 10 μM. Non-specific binding is determined in the presence of 500 nM aldosterone for MR binding, 500 nM dexamethasone for GR binding, or 500 nM methyltrienolone for AR and PR binding. […] After an incubation of 2 hours, plates are read in a Wallac Microbeta counter. […]

Assay [2] addresses T2, human PR (progesterone receptor) (Homo sapiens, UniProt P06401).
T2 construct: expressed in transfected cells; host or cells: HEK293 (293-PR lysate)
T2 sequence (P06401 1-933): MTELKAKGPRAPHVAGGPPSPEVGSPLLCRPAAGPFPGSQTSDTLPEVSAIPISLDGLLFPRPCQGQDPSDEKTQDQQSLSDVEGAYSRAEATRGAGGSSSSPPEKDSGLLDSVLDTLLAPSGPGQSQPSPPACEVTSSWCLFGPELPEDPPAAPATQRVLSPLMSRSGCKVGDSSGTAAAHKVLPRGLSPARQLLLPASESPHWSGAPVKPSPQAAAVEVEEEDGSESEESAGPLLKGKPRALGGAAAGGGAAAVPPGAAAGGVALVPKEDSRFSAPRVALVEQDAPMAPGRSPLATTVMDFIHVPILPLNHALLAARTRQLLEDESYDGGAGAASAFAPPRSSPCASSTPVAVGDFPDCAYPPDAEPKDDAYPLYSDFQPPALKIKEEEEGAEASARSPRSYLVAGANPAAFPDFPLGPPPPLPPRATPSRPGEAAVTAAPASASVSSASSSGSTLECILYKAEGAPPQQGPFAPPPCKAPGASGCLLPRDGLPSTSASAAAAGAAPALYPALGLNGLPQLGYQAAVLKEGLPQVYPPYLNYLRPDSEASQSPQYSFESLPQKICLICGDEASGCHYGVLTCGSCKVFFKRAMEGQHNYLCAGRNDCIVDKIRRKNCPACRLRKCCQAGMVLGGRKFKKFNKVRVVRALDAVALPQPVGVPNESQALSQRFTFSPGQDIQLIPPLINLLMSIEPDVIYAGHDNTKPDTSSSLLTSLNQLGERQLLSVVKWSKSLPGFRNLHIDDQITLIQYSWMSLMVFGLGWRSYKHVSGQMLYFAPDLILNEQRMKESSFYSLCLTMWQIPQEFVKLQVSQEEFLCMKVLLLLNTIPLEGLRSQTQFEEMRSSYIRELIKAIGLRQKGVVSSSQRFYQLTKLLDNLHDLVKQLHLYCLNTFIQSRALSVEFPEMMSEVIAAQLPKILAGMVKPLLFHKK
The experiment in a line: Steroid nuclear hormone receptor binding assay, PR. Particulars: [3H]-methyltrienolone, HEK293 lysate overexpressing human PR. The method, then: as §1, §2

As to `O=c1[nH]c2cc(/C=C3\c4ccccc4COc4cc(F)ccc43)ccc2n1[C@@H]1C[C@@H]2COCCN2C1` [Compound (I), 5-((E)-(3-fluorodibenzo[b,e]oxepin-11(6H)-ylidene)methyl)-1-((7R,8aR)-hexahydro-1H-pyrrolo[2,1-c][1,4]oxazin-7-yl)-1H-benzo[d]imidazol-2(3H)-one], the Ki (commonly a measure of affinity in units of concentration, obtained from inhibition or displacement) was approximately 0.4 nM in assay [1] and approximately 478 nM in assay [2].
